Measurements from patent US20260184663A1, “INDENE COMPOUNDS, PHARMACEUTICAL COMPOSITIONS THEREOF, AND THEIR THERAPEUTIC APPLICATIONS” (NucMito Pharmaceuticals co. Ltd., priority 2022, published 2026).
Like-named read-outs stand apart in the source and are kept apart here.

Legend:
Assay type in all cases: cell-based
HepG2 (liver cancer) = test: Antiproliferative activity (CCK-8 cell viability), HepG2; conditions: Homo sapiens, 72 h, read-out: Antiproliferative activity in cancerous cells, HepG2 (inhibition of cell growth); for inhibition at 3.3 µM: Compound concentration: 3.3 μM; for inhibition at 10 µM: Compound concentration: 10 μM; for inhibition at 30 µM: Compound concentration: 30 μM
Summary of the method: (§1)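 Growth inhibition graded in bands from percent viability against DMSO vehicle, read as CCK-8 absorbance at 450 nm. Compound tested at 3.3, 10 or 30 μM for 72 h, 37 °C; media contained 10% FBS: DMEM for HepG2/SW480, MEM for HeLa, F-12K for A549.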

[1] = test system: A549 (lung adenocarcinoma); test: Antiproliferative activity (CCK-8 cell viability), A549; conditions: Homo sapiens, 72 h, read-out: Antiproliferative activity in cancerous cells, A549 (inhibition of cell growth); for inhibition at 3.3 µM: Compound concentration: 3.3 μM; for inhibition at 10 µM: Compound concentration: 10 μM; for inhibition at 30 µM: Compound concentration: 30 μM
Summary of the method: as §1

[2] = test system: MDA-MB-231 (breast cancer); test: Antiproliferative activity (CCK-8 cell viability), MDA-MB-231; conditions: Homo sapiens, 72 h, read-out: Antiproliferative activity in cancerous cells, MDA-MB-231 (inhibition of cell growth); for inhibition at 3.3 µM: Compound concentration: 3.3 μM; for inhibition at 10 µM: Compound concentration: 10 μM; for inhibition at 30 µM: Compound concentration: 30 μM
Summary of the method: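 Growth inhibition of human MDA-MB-231 breast cancer cells was assessed with a Cell Counting Kit-8. Cells cultured in DMEM plus 10% FBS were seeded at 2,000-5,000 cells/well, treated after attachment, and kept 72 h at 37° C. CCK-8 solution (10 μL) was added for 4 h, and absorbance at 450 nm was compared with DMSO-treated controls.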

[3] = test system: A431 (epidermoid carcinoma); test: Antiproliferative activity (CCK-8 cell viability), A431; conditions: Homo sapiens, 72 h, read-out: Antiproliferative activity in cancerous cells, A431 (inhibition of cell growth); for inhibition at 3.3 µM: A-431, Compound concentration: 3.3 μM; for inhibition at 10 µM: A-431, Compound concentration: 10 μM; for inhibition at 30 µM: A-431, Compound concentration: 30 μM
Summary of the method: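 This growth inhibition assay used A431 cells maintained in Dulbecco's modified Eagle's medium plus 10% fetal bovine serum. Cells were seeded in 96-well plates, treated with compound for 72 h at 37° C., and then given 10 μL CCK-8 solution. After a further 4 h, absorbance was read at 450 nm.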

SW480 (colon cancer) = test: Antiproliferative activity (CCK-8 cell viability), SW480; conditions: Homo sapiens, 72 h; for inhibition at 3.3 µM: Compound concentration: 3.3 μM; for inhibition at 10 µM: Compound concentration: 10 μM; for inhibition at 30 µM: Compound concentration: 30 μM
Summary of the method: as §1

[4] = test system: alpha-smooth muscle actin (α-SMA); test: Inhibition of TGF-β induced expression of alpha-smooth muscle actin (α-SMA) in CFSC cells (western blot); conditions: compound at 10 μM, TGF-β (10 ng/mL), 24 hours, band intensity vs TGF-β only
Summary of the method: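 CFSC hepatic stellate cells in serum-free DMEM treated 24 h at 37 °C with compound at 10 μM plus TGF-β (10 ng/mL). α-SMA measured by Western blot with β-actin, ECL detection, densitometry. Percent inhibition is decrease in band intensity versus TGF-β-only cells.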

HeLa (cervical cancer) = test: Antiproliferative activity (CCK-8 cell viability), HeLa; conditions: Homo sapiens, 72 h; for inhibition at 3.3 µM: Compound concentration: 3.3 μM; for inhibition at 10 µM: Compound concentration: 10 μM; for inhibition at 30 µM: Compound concentration: 30 μM
Summary of the method: as §1

[5] = test system: B16F10 (malignant melanoma); test: Antiproliferative activity (CCK-8 cell viability), B16F10; conditions: Mus musculus, 72 h, read-out: Antiproliferative activity in cancerous cells, B16F10 (inhibition of cell growth); for inhibition at 3.3 µM: B16-F10, Compound concentration: 3.3 μM; for inhibition at 10 µM: B16-F10, Compound concentration: 10 μM; for inhibition at 30 µM: B16-F10, Compound concentration: 30 μM
Summary of the method: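 Cell growth inhibition was measured in B16F10 malignant melanoma cells with a Cell Counting Kit-8 viability assay. Cells were maintained in DMEM plus 10% fetal bovine serum, seeded at 2,000-5,000 cells/well in 96-well plates, and treated for 72 h at 37° C. Viability was expressed relative to DMSO-treated vehicle control wells.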

[6] = read-out: Antiproliferative activity in cancerous cells, SW480 (inhibition of cell growth)
[7] = read-out: Antiproliferative activity in cancerous cells, HELA (inhibition of cell growth)

## CC1=C(CC(=O)O)c2cc(F)ccc2/C1=C\c1cccc(COc2cccc(C(C)(C)C)c2)c1 [B21, (Z)-2-(1-(3-((3-(Tert-butyl)phenoxy)methyl)benzylidene)-5-fluoro-2-methyl-1H-inden-3-yl)acetic acid]
HepG2 (liver cancer)
  inhibition at 3.3 µM: < 30%
  inhibition at 10 µM: 30 to 50%
[1]
  inhibition at 3.3 µM: < 30%
  inhibition at 10 µM: ≥ 50%
[2]
  inhibition at 3.3 µM: ≥ 50%
  inhibition at 10 µM: ≥ 50%
[3]
  inhibition at 3.3 µM: < 30%
  inhibition at 10 µM: 30 to 50%
SW480 (colon cancer); [6]
  inhibition at 3.3 µM: < 30%
  inhibition at 10 µM: 30 to 50%
[4]
  inhibition at 10 µM: > 80%
HeLa (cervical cancer); [7]
  inhibition at 3.3 µM: < 30%
  inhibition at 10 µM: ≥ 50%
[5]
  inhibition at 3.3 µM: < 30%
  inhibition at 10 µM: ≥ 50%

## CC1=C(CC(=O)O)c2cc(F)ccc2/C1=C/c1cccc(COc2ccc(F)cc2F)c1 [E6, (E)-2-(1-(3-((2,4-Difluorophenoxy)methyl)benzylidene)-5-fluoro-2-methyl-1H-inden-3-yl)acetic acid]
HepG2 (liver cancer)
  inhibition at 3.3 µM: < 30%
  inhibition at 10 µM: < 30%
  inhibition at 30 µM: ≥ 50%
[1]
  inhibition at 3.3 µM: < 30%
  inhibition at 10 µM: < 30%
  inhibition at 30 µM: ≥ 50%
[2]
  inhibition at 3.3 µM: 30 to 50%
  inhibition at 10 µM: 30 to 50%
  inhibition at 30 µM: ≥ 50%
[3]
  inhibition at 3.3 µM: < 30%
  inhibition at 10 µM: 30 to 50%
  inhibition at 30 µM: ≥ 50%
SW480 (colon cancer); [6]
  inhibition at 3.3 µM: < 30%
  inhibition at 10 µM: 30 to 50%
  inhibition at 30 µM: ≥ 50%
[4]
  inhibition at 10 µM: > 80%
HeLa (cervical cancer); [7]
  inhibition at 3.3 µM: < 30%
  inhibition at 10 µM: < 30%
  inhibition at 30 µM: ≥ 50%
[5]
  inhibition at 3.3 µM: < 30%
  inhibition at 10 µM: 30 to 50%
  inhibition at 30 µM: ≥ 50%

## CC1=C(CC(=O)O)c2ccc(F)cc2/C1=C\c1ccc(Oc2ccc(F)cc2)cc1 [C3, (Z)-2-(6-Fluoro-1-(4-(4-fluorophenoxy)benzylidene)-2-methyl-1H-inden-3-yl)-acetic acid]
HepG2 (liver cancer)
  inhibition at 3.3 µM: ≥ 50%
  inhibition at 10 µM: ≥ 50%
[1]
  inhibition at 3.3 µM: 30 to 50%
  inhibition at 10 µM: 30 to 50%
[2]
  inhibition at 3.3 µM: < 30%
  inhibition at 10 µM: 30 to 50%
[3]
  inhibition at 3.3 µM: ≥ 50%
  inhibition at 10 µM: ≥ 50%
SW480 (colon cancer); [6]
  inhibition at 3.3 µM: < 30%
  inhibition at 10 µM: < 30%
SW480 (colon cancer); read-out: Antiproliferative activity in cancerous cells, SW480
  inhibition at 30 µM: < 30%
[4]
  inhibition at 10 µM: < 30%
HeLa (cervical cancer); [7]
  inhibition at 3.3 µM: < 30%
  inhibition at 10 µM: < 30%
HeLa (cervical cancer); read-out: Antiproliferative activity in cancerous cells, HELA
  inhibition at 30 µM: < 30%
[5]
  inhibition at 3.3 µM: < 30%
  inhibition at 10 µM: 30 to 50%

## O=C(O)CC1=C(Cc2ccc(C(F)(F)F)cc2)/C(=C/c2cccc(Oc3ccccc3)c2)c2ccc(F)cc21 [C13, (Z)-2-(5-Fluoro-1-(3-phenoxybenzylidene)-2-(4-(trifluoromethyl)benzyl)-1H-inden-3-yl)acetic acid]
HepG2 (liver cancer)
  inhibition at 3.3 µM: ≥ 50%
  inhibition at 10 µM: ≥ 50%
[1]
  inhibition at 3.3 µM: ≥ 50%
  inhibition at 10 µM: ≥ 50%
[2]
  inhibition at 3.3 µM: ≥ 50%
  inhibition at 10 µM: ≥ 50%
[3]
  inhibition at 3.3 µM: ≥ 50%
  inhibition at 10 µM: ≥ 50%
SW480 (colon cancer); [6]
  inhibition at 3.3 µM: ≥ 50%
  inhibition at 10 µM: ≥ 50%
[4]
  inhibition at 10 µM: > 80%
HeLa (cervical cancer); [7]
  inhibition at 3.3 µM: ≥ 50%
  inhibition at 10 µM: ≥ 50%
[5]
  inhibition at 3.3 µM: ≥ 50%
  inhibition at 10 µM: ≥ 50%

## CC1=C(CC(=O)O)c2c(F)cc(F)cc2/C1=C\c1cccc(C(F)(F)F)c1 [D6, (Z)-2-(4,6-Difluoro-2-methyl-1-(3-(trifluoromethyl)benzylidene)-1H-inden-3-yl)-acetic acid]
HepG2 (liver cancer)
  inhibition at 3.3 µM: < 30%
  inhibition at 10 µM: < 30%
  inhibition at 30 µM: 30 to 50%
[1]
  inhibition at 3.3 µM: < 30%
  inhibition at 10 µM: < 30%
  inhibition at 30 µM: ≥ 50%
[2]
  inhibition at 3.3 µM: < 30%
  inhibition at 10 µM: < 30%
  inhibition at 30 µM: ≥ 50%
[3]
  inhibition at 3.3 µM: < 30%
  inhibition at 10 µM: < 30%
  inhibition at 30 µM: < 30%
SW480 (colon cancer); [6]
  inhibition at 3.3 µM: < 30%
  inhibition at 10 µM: < 30%
  inhibition at 30 µM: 30 to 50%
[4]
  inhibition at 10 µM: < 30%
HeLa (cervical cancer); [7]
  inhibition at 3.3 µM: < 30%
  inhibition at 10 µM: < 30%
  inhibition at 30 µM: ≥ 50%
[5]
  inhibition at 3.3 µM: < 30%
  inhibition at 10 µM: < 30%
  inhibition at 30 µM: < 30%

## CC1=C(CC(=O)O)c2cc(F)cc(F)c2/C1=C/c1ccc(COc2ccccc2)cc1 [E2, (E)-2-(5,7-Difluoro-2-methyl-1-(4-(phenoxymethyl)benzylidene)-1H-inden-3-yl)-acetic acid]
HepG2 (liver cancer)
  inhibition at 3.3 µM: 30 to 50%
  inhibition at 10 µM: ≥ 50%
  inhibition at 30 µM: ≥ 50%
[1]
  inhibition at 3.3 µM: < 30%
  inhibition at 10 µM: 30 to 50%
  inhibition at 30 µM: ≥ 50%
[2]
  inhibition at 3.3 µM: < 30%
  inhibition at 10 µM: ≥ 50%
  inhibition at 30 µM: ≥ 50%
[3]
  inhibition at 3.3 µM: 30 to 50%
  inhibition at 10 µM: ≥ 50%
  inhibition at 30 µM: ≥ 50%
SW480 (colon cancer); [6]
  inhibition at 3.3 µM: ≥ 50%
  inhibition at 10 µM: ≥ 50%
  inhibition at 30 µM: ≥ 50%
[4]
  inhibition at 10 µM: 50 to 80%
HeLa (cervical cancer); [7]
  inhibition at 3.3 µM: ≥ 50%
  inhibition at 10 µM: ≥ 50%
  inhibition at 30 µM: ≥ 50%
[5]
  inhibition at 3.3 µM: ≥ 50%
  inhibition at 10 µM: ≥ 50%
  inhibition at 30 µM: ≥ 50%

## C/C(=C1/C=C(CC(=O)O)c2ccccc21)c1ccc(F)cc1 [E14, (E)-2-(1-(1-(4-Fluorophenyl)ethylidene)-1H-inden-3-yl)acetic acid]
HepG2 (liver cancer)
  inhibition at 3.3 µM: < 30%
  inhibition at 10 µM: < 30%
  inhibition at 30 µM: < 30%
[1]
  inhibition at 3.3 µM: < 30%
  inhibition at 10 µM: < 30%
  inhibition at 30 µM: 30 to 50%
[2]
  inhibition at 3.3 µM: 30 to 50%
  inhibition at 10 µM: 30 to 50%
  inhibition at 30 µM: 30 to 50%
[3]
  inhibition at 3.3 µM: < 30%
  inhibition at 10 µM: < 30%
  inhibition at 30 µM: < 30%
SW480 (colon cancer); [6]
  inhibition at 3.3 µM: < 30%
  inhibition at 10 µM: < 30%
  inhibition at 30 µM: 30 to 50%
[4]
  inhibition at 10 µM: < 30%
HeLa (cervical cancer); [7]
  inhibition at 3.3 µM: 30 to 50%
  inhibition at 10 µM: 30 to 50%
  inhibition at 30 µM: ≥ 50%
[5]
  inhibition at 3.3 µM: < 30%
  inhibition at 10 µM: < 30%
  inhibition at 30 µM: 30 to 50%
